12 compounds from patent publication US20220169628A1 (University of Florida Research Foundation, Incorporated, priority 2019, published 2022) can be followed below.

pIC50: −log10 of the molar value. Read-outs that look alike come from different tables or passages of the source.

One experiment concerns RS4;11 cells. As to the kind of experiment: Cell viability assay, MTS, 48 h, RS4;11. The class given is cell-based. The note with it: 48 hours, read-out: IC50 (48 hours) RS4;11. The method, then:
(§1) Acute lymphoblastic leukemia cells (MOLT-4 and RS4; 11) or small cell lung cancer (NCI-H146 or simply H146) were incubated with increasing concentrations of Bcl-xL degraders for 48 h. Cell viability was measured by tetrazolium-based MTS assay.

For the next experiment, the system named is MOLT-4 cells. Nature of the experiment: Cell viability assay, MTS, 48 h, MOLT-4. The experiment is classed as cell-based. The note with it: 48 hours, read-out: IC50 (48 hours) MOLT-4. As for the experimental part:
as §1

A word on the pIC50: it is the negative decadic logarithm of the IC50, by convention in mol/L. Turning to `CC1(CNC(=O)CCCCCCCCNc2cccc3c2C(=O)N(C2CCC(=O)NC2=O)C3=O)CCC(c2ccc(Cl)cc2)=C(CN2CCN(c3ccc(C(=O)NS(=O)(=O)c4ccc(N[C@H](CCN5CCOCC5)CSc5ccccc5)c(S(=O)(=O)C(F)(F)F)c4)cc3)CC2)C1` (stereo partly drawn) [compound 74, 4-(4-((4′-chloro-4-((9-((2-(2,6-dioxopiperidin-3-yl)-1,3-dioxoisoindolin-4-yl)amino)nonanamido)methyl)-4-methyl-3,4,5,6-tetrahydro-[1,1′-biphenyl]-2-yl)methyl)piperazin-1-yl)-N-((4-(((R)-4-morpholino-1-(phenylthio)butan-2-yl)amino)-3-((trifluoromethyl)sulfonyl)phenyl)sulfonyl)benzamide], the pIC50 was 6.82 to 7.30 with RS4;11 cells (Homo sapiens, RS4-11, 48 h) and above 7.30 in the experiment with MOLT-4 cells (Homo sapiens, MOLT-4, 48 h).
For the compound “(2S,4R)-1-((S)-2-(11-(4-(4-chlorophenyl)-5-((4-(4-(((4-(((R)-4-morpholino-1-(phenylthio)butan-2-yl)amino)-3-((trifluoromethyl)sulfonyl)phenyl)sulfonyl)carbamoyl)phenyl)piperazin-1-yl)methyl)-3,6-dihydropyridin-1(2H)-yl)-11-oxoundecanamido)-3,3-dimethylbutanoyl)-4-hydroxy-N—((S)-1-(4-(4-methylthiazol-5-yl)phenyl)ethyl)pyrrolidine-2-carboxamide [Example 6]”, the pIC50 in the experiment with RS4;11 cells is above 7.30; with MOLT-4 cells it was 6.82 to 7.30.
For the compound `Cc1ncsc1-c1ccc([C@H](C)NC(=O)[C@@H]2C[C@@H](O)CN2C(=O)[C@@H](NC(=O)CCCCCN2CCN(CC3(C)CCC(c4ccc(Cl)cc4)=C(CN4CCN(c5ccc(C(=O)NS(=O)(=O)c6ccc(N[C@H](CCN7CCOCC7)CSc7ccccc7)c(S(=O)(=O)C(F)(F)F)c6)cc5)CC4)C3)CC2)C(C)(C)C)cc1` (stereo partly drawn) [compound 69, (2S,4R)-1-((2S)-2-(6-(4-((4′-chloro-4-methyl-6-((4-(4-(((4-(((R)-4-morpholino-1-(phenylthio)butan-2-yl)amino)-3-((trifluoromethyl)sulfonyl)phenyl)sulfonyl)carbamoyl)phenyl)piperazin-1-yl)methyl)-2,3,4,5-tetrahydro-[1,1′-biphenyl]-4-yl)methyl)piperazin-1-yl)hexanamido)-3,3-dimethylbutanoyl)-4-hydroxy-N—((S)-1-(4-(4-methylthiazol-5-yl)phenyl)ethyl)pyrrolidine-2-carboxamide], the pIC50 with RS4;11 cells and in the experiment on MOLT-4 cells was 6.82 to 7.30 throughout.
For `Cc1ncsc1-c1ccc([C@H](C)NC(=O)[C@@H]2C[C@@H](O)CN2C(=O)[C@@H](NC(=O)CN2CCN(CC3(C)CCC(c4ccc(Cl)cc4)=C(CN4CCN(c5ccc(C(=O)NS(=O)(=O)c6ccc(N[C@H](CCN7CCOCC7)CSc7ccccc7)c(S(=O)(=O)C(F)(F)F)c6)cc5)CC4)C3)CC2)C(C)(C)C)cc1` (stereo partly drawn) [compound 67, (2S,4R)-1-((2S)-2-(2-(4-((4′-chloro-4-methyl-6-((4-(4-(((4-(((R)-4-morpholino-1-(phenylthio)butan-2-yl)amino)-3-((trifluoromethyl)sulfonyl)phenyl)sulfonyl)carbamoyl)phenyl)piperazin-1-yl)methyl)-2,3,4,5-tetrahydro-[1,1′-biphenyl]-4-yl)methyl)piperazin-1-yl)acetamido)-3,3-dimethylbutanoyl)-4-hydroxy-N—((S)-1-(4-(4-methylthiazol-5-yl)phenyl)ethyl)pyrrolidine-2-carboxamide], the pIC50 was 6.82 to 7.30 in the experiment on RS4;11 cells (Homo sapiens, RS4-11, 48 h) and 6.82 to 7.30 in the experiment on MOLT-4 cells (Homo sapiens, MOLT-4, 48 h).
As to `Cc1ncsc1-c1ccc([C@H](C)NC(=O)[C@@H]2C[C@@H](O)CN2C(=O)[C@@H](NC(=O)CCCCCCCCCC(=O)N2CCN(CC3(C)CCC(c4ccc(Cl)cc4)=C(CN4CCN(c5ccc(C(=O)NS(=O)(=O)c6ccc(N[C@H](CCN7CCOCC7)CSc7ccccc7)c(S(=O)(=O)C(F)(F)F)c6)cc5)CC4)C3)CC2)C(C)(C)C)cc1` (stereo partly drawn) [degrader #20, (2S,4R)-1-((2S)-2-(11-(4-((4′-chloro-4-methyl-6-((4-(4-(((4-(((R)-4-morpholino-1-(phenylthio)butan-2-yl)amino)-3-((trifluoromethyl)sulfonyl)phenyl)sulfonyl)carbamoyl)phenyl)piperazin-1-yl)methyl)-2,3,4,5-tetrahydro-[1,1′-biphenyl]-4-yl)methyl)piperazin-1-yl)-11-oxoundecanamido)-3,3-dimethylbutanoyl)-4-hydroxy-N—((S)-1-(4-(4-methylthiazol-5-yl)phenyl)ethyl)pyrrolidine-2-carboxamide], the pIC50 was 6.30 to 6.82 in the experiment on RS4;11 cells (Homo sapiens, RS4-11, 48 h) and 6.30 to 6.82 in the experiment with MOLT-4 cells (Homo sapiens, MOLT-4, 48 h).
Turning to `Cc1ncsc1-c1ccc([C@H](C)NC(=O)[C@@H]2C[C@@H](O)CN2C(=O)[C@@H](NC(=O)CCCCCCC(=O)N2C[C@@H]3C[C@H]2CN3CC2(C)CCC(c3ccc(Cl)cc3)=C(CN3CCN(c4ccc(C(=O)NS(=O)(=O)c5ccc(N[C@H](CCN6CCOCC6)CSc6ccccc6)c(S(=O)(=O)C(F)(F)F)c5)cc4)CC3)C2)C(C)(C)C)cc1` (stereo partly drawn) [degrader #45], the pIC50 was above 7.30 with RS4;11 cells (Homo sapiens, RS4-11, 48 h) and 6.82 to 7.30 in the experiment on MOLT-4 cells (Homo sapiens, MOLT-4, 48 h).
With `Cc1ncsc1-c1ccc([C@H](C)NC(=O)[C@@H]2C[C@@H](O)CN2C(=O)[C@@H](NC(=O)CCCCCC(=O)NCCN(C)CC2(C)CCC(c3ccc(Cl)cc3)=C(CN3CCN(c4ccc(C(=O)NS(=O)(=O)c5ccc(N[C@H](CCN6CCOCC6)CSc6ccccc6)c(S(=O)(=O)C(F)(F)F)c5)cc4)CC3)C2)C(C)(C)C)cc1` (stereo partly drawn) [compound 60], the pIC50 was 6.30 to 6.82 with RS4;11 cells (Homo sapiens, RS4-11, 48 h) and 6.30 to 6.82 in the experiment on MOLT-4 cells (Homo sapiens, MOLT-4, 48 h).
Consider `Cc1ncsc1-c1ccc([C@H](C)NC(=O)[C@@H]2C[C@@H](O)CN2C(=O)[C@@H](NC(=O)CCCCCC(=O)N2CCN(CCN(C)CC3(C)CCC(c4ccc(Cl)cc4)=C(CN4CCN(c5ccc(C(=O)NS(=O)(=O)c6ccc(N[C@H](CCN7CCOCC7)CSc7ccccc7)c(S(=O)(=O)C(F)(F)F)c6)cc5)CC4)C3)CC2)C(C)(C)C)cc1` (stereo partly drawn) [compound 59], for which the pIC50 in the experiment with RS4;11 cells (Homo sapiens, RS4-11, 48 h) was above 7.30; with MOLT-4 cells (Homo sapiens, MOLT-4, 48 h), above 7.30.
`Cc1ncsc1-c1ccc([C@H](C)NC(=O)[C@@H]2C[C@@H](O)CN2C(=O)[C@@H](NC(=O)CCCCCN2CCN(CC3(C)CCC(c4ccc(Cl)cc4)=C(CN4CCN(c5ccc(C(=O)NS(=O)(=O)c6ccc(N[C@H](CCN7CCOCC7)CSc7ccccc7)c(S(=O)(=O)C(F)(F)F)c6)cc5)CC4)C3)CC2)C(C)(C)C)cc1` (stereo partly drawn) [Compound 55, N^1-((4′-chloro-4-methyl-6-((4-(4-(((4-(((R)-4-morpholino-1-(phenylthio)butan-2-yl)amino)-3-((trifluoromethyl)sulfonyl)phenyl)sulfonyl)carbamoyl)phenyl)piperazin-1-yl)methyl)-2,3,4,5-tetrahydro-[1,1′-biphenyl]-4-yl)methyl)-N^2—((S)-1-((2S,4R)-4-hydroxy-2-(((S)-1-(4-(4-methylthiazol-5-yl)phenyl)ethyl)carbamoyl)pyrrolidin-1-yl)-3,3-dimethyl-1-oxobutan-2-yl)dodecanediamide]: the pIC50 with RS4;11 cells (Homo sapiens, RS4-11, 48 h) was above 7.30; in the experiment with MOLT-4 cells (Homo sapiens, MOLT-4, 48 h), above 7.30.
With `Cc1ncsc1-c1ccc([C@H](C)NC(=O)[C@@H]2C[C@@H](O)CN2C(=O)[C@@H](NC(=O)CCCCCCC(=O)N2CCC3(CCN(CC4(C)CCC(c5ccc(Cl)cc5)=C(CN5CCN(c6ccc(C(=O)NS(=O)(=O)c7ccc(N[C@H](CCN8CCOCC8)CSc8ccccc8)c(S(=O)(=O)C(F)(F)F)c7)cc6)CC5)C4)CC3)CC2)C(C)(C)C)cc1` (stereo partly drawn) [degrader #29, (2S,4R)-1-((2S)-2-(8-(9-((4′-chloro-4-methyl-6-((4-(4-(((4-(((R)-4-morpholino-1-(phenylthio)butan-2-yl)amino)-3-((trifluoromethyl)sulfonyl)phenyl)sulfonyl)carbamoyl)phenyl)piperazin-1-yl)methyl)-2,3,4,5-tetrahydro-[1,1′-biphenyl]-4-yl)methyl)-3,9-diazaspiro[5.5]undecan-3-yl)-8-oxooctanamido)-3,3-dimethylbutanoyl)-4-hydroxy-N—((S)-1-(4-(4-methylthiazol-5-yl)phenyl)ethyl)pyrrolidine-2-carboxamide], the pIC50 in the experiment on RS4;11 cells (Homo sapiens, RS4-11, 48 h) is above 7.30; in the experiment on MOLT-4 cells (Homo sapiens, MOLT-4, 48 h), above 7.30.
Regarding `Cc1ncsc1-c1ccc([C@H](C)NC(=O)[C@@H]2C[C@@H](O)CN2C(=O)[C@@H](NC(=O)CCCCCCC(=O)NC2CCN(CC3(C)CCC(c4ccc(Cl)cc4)=C(CN4CCN(c5ccc(C(=O)NS(=O)(=O)c6ccc(N[C@H](CCN7CCOCC7)CSc7ccccc7)c(S(=O)(=O)C(F)(F)F)c6)cc5)CC4)C3)CC2)C(C)(C)C)cc1` (stereo partly drawn) [degrader #38, N1-(1-((4′-chloro-4-methyl-6-((4-(4-(((4-(((R)-4-morpholino-1-(phenylthio)butan-2-yl)amino)-3-((trifluoromethyl)sulfonyl)phenyl)sulfonyl)carbamoyl)phenyl)piperazin-1-yl)methyl)-2,3,4,5-tetrahydro-[1,1′-biphenyl]-4-yl)methyl)piperidin-4-yl)-N8-((S)-1-((2S,4R)-4-hydroxy-2-(((S)-1-(4-(4-methylthiazol-5-yl)phenyl)ethyl)carbamoyl)pyrrolidin-1-yl)-3,3-dimethyl-1-oxobutan-2-yl)octanediamide], the pIC50 in the experiment with RS4;11 cells (Homo sapiens, RS4-11, 48 h) was above 7.30; with MOLT-4 cells (Homo sapiens, MOLT-4, 48 h), 6.82 to 7.30.
For “(2S,4R)-1-((S)-2-(12-(4-(4-chlorophenyl)-5-((4-(4-(((4-(((R)-4-morpholino-1-(phenylthio)butan-2-yl)amino)-3-((trifluoromethyl)sulfonyl)phenyl)sulfonyl)carbamoyl)phenyl)piperazin-1-yl)methyl)-3,6-dihydropyridin-1(2H)-yl)-12-oxododecanamido)-3,3-dimethylbutanoyl)-4-hydroxy-N—((S)-1-(4-(4-methylthiazol-5-yl)phenyl)ethyl)pyrrolidine-2-carboxamide [Example 7]”, the pIC50 with RS4;11 cells and with MOLT-4 cells was 6.82 to 7.30 in each case.
